# Results published in patent US20210177795A1 (priority 2017, published 2021).
# Peptide text beside a SMILES is read from it. * marks the point of attachment. X1 = CCCCCCCCCCCCCCCC(=O)OCC(C*)OC(=O)CCCCCCCCCCCCCCC
# Conditions: mouse, in vivo
SMILES,highest weight loss,weight loss relative to baseline
"CCCCCCCCCCCCCCCC(=O)OCC(CSC[C@H](N)C(=O)N[C@@H](CO)C(=O)N[C@@H](CO)C(=O)NCCOCCOCCOCCOCCOCCOCCOCCOCCOCCOCCOCCOCCC(=O)NCC(N)=O)OC(=O)CCCCCCCCCCCCCCC (some centres unmarked) [INNA-003, PEG-S—S-Pam2Cys]",4.67%±2.12%,
"CCCCCCCCCCCCCCCC(=O)OCC(CSC[C@H](N)C(=O)N[C@@H](CO)C(=O)N[C@@H](CCCCN)C(=O)N[C@@H](CCCCN)C(=O)N[C@@H](CCCCN)C(=O)N[C@@H](CCCCN)C(=O)O)OC(=O)CCCCCCCCCCCCCCC (some centres unmarked) [Pam2Cys-SK4, dipalmitoyl-S-glyceryl cysteine-serine-(lysine)4, reference compound] (H-C(X1)SKKKK-OH)",,little or no weight loss
